Values quoted from earlier work, collected in US8545882B2, “Control release formulation containing a hydrophobic material as the sustained release agent” (Nostrum Pharmaceuticals, Inc., priority 2001, dated 2013).
Where two headings read alike, the source gives them in different places.

How the values were obtained:
[1] = granules 200-315 microns, any of three polymers at 10 or 20% by weight
[2] = 40% by weight glycerol palmitostearate, wet granulation, after 20 minutes
[3] = water

CC(C)Cc1ccc(C(C)C(=O)O)cc1 (stereo not shown) [ibuprofen]
time in which the drug was released completely [1]: ≤ 30 min

O=C([O-])c1ccccc1O.[Na+] [sodium salicylate]
drug released in water [2]: 50%

Cn1c(=O)c2[nH]cnc2n(C)c1=O [theophylline]
theophylline released ([3]; 2% (w/w) wax coating, within one hour): 85%
theophylline released ([3]; 6% wax coating, in 5 minutes): 35%
theophylline released ([3]; 6% wax coating, within the first hour): 55%
theophylline released ([3]; 10% (w/w) wax coating, in 5 minutes): 28%
theophylline released ([3]; 10% (w/w) wax coating, within the first hour): 38%
